In the supplement of paper PMC10307832:

How the values were obtained:
Test in all cases: relative viability (nuclei count vs DMSO), 5 days (fraction); higher = more cells survive
[1] = compound: CN(C)C[C@@H]1CCn2cc(c3ccccc32)C2=C(C(=O)NC2=O)c2cn(c3ccccc23)CCO1 [Ruboxistaurin] + CC1(C)CCC(c2ccc(Cl)cc2)=C(CN2CCN(c3ccc(C(=O)NS(=O)(=O)c4ccc(N[C@H](CCN5CCOCC5)CSc5ccccc5)c(S(=O)(=O)C(F)(F)F)c4)cc3)CC2)C1 [Navitoclax] (partner 0.5 µM)
Summary of the method: (§1)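 For relative viability, nuclei counts in treated wells were divided by those in vehicle wells. Lung cancer cell lines had been pin-tool dosed in 1536-well plates the day after seeding and cultured for 5 days, then fixed and stained in one step (final 0.05% Triton X-100, 1% formaldehyde, 1 ug/ml Hoechst) and imaged at 4×. Doses were one drug alone or a fixed anchor-drug dose plus five library-drug doses (not always all listed) in √10 steps, and values are duplicate-plate medians.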

[2] = compound: CN(C)C[C@@H]1CCn2cc(c3ccccc32)C2=C(C(=O)NC2=O)c2cn(c3ccccc23)CCO1 [Ruboxistaurin] + COc1cc2c(Oc3ccc(NC(=O)C4(C(=O)Nc5ccc(F)cc5)CC4)cc3F)ccnc2cc1OCCCN1CCOCC1 [Foretinib] (partner 0.25 µM)
Summary of the method: as §1

[3] = compound: CN(C)C[C@@H]1CCn2cc(c3ccccc32)C2=C(C(=O)NC2=O)c2cn(c3ccccc23)CCO1 [Ruboxistaurin] + Cc1nc(Nc2ncc(C(=O)Nc3c(C)cccc3Cl)s2)cc(N2CCN(CCO)CC2)n1 [Dasatinib] (partner 0.075 µM)
Summary of the method: as §1

Ruboxistaurin + Olaparib = compound: CN(C)C[C@@H]1CCn2cc(c3ccccc32)C2=C(C(=O)NC2=O)c2cn(c3ccccc23)CCO1 [Ruboxistaurin] + O=C(c1cc(Cc2n[nH]c(=O)c3ccccc23)ccc1F)N1CCN(C(=O)C2CC2)CC1 [Olaparib] (partner 8 µM)
Summary of the method: as §1

[4] = compound: CN(C)C[C@@H]1CCn2cc(c3ccccc32)C2=C(C(=O)NC2=O)c2cn(c3ccccc23)CCO1 [Ruboxistaurin] + Nc1ncn([C@H]2C[C@H](O)[C@@H](CO)O2)c(=O)n1 [Decitabine] (partner 2 µM)
Summary of the method: as §1

## NCI-H1355
[1]; first compound 0.08 µM
  relative viability: 1.09
[1]; first compound 0.8 µM
  relative viability: 0.853
[1]; first compound 2.53 µM
  relative viability: 0.897
[1]; first compound 8 µM
  relative viability: 0.813
[2]; first compound 0.08 µM
  relative viability: 1.02
[2]; first compound 0.8 µM
  relative viability: 0.862
[2]; first compound 2.53 µM
  relative viability: 1.02
[2]; first compound 8 µM
  relative viability: 0.82
[3]; first compound 0.08 µM
  relative viability: 0.774
[3]; first compound 0.8 µM
  relative viability: 0.614
[3]; first compound 2.53 µM
  relative viability: 0.638
[3]; first compound 8 µM
  relative viability: 0.464
Ruboxistaurin + Olaparib; first compound 0.08 µM
  relative viability: 0.763
Ruboxistaurin + Olaparib; first compound 0.8 µM
  relative viability: 0.712
Ruboxistaurin + Olaparib; first compound 2.53 µM
  relative viability: 0.734
Ruboxistaurin + Olaparib; first compound 8 µM
  relative viability: 0.742
[4]; first compound 0.08 µM
  relative viability: 0.37
[4]; first compound 0.8 µM
  relative viability: 0.356
[4]; first compound 2.53 µM
  relative viability: 0.347
[4]; first compound 8 µM
  relative viability: 0.411

## NCI-H460
[1]; first compound 0.08 µM
  relative viability: 1.2
[1]; first compound 0.8 µM
  relative viability: 1.03
[1]; first compound 2.53 µM
  relative viability: 1.16
[1]; first compound 8 µM
  relative viability: 0.935
[2]; first compound 0.08 µM
  relative viability: 1.03
[2]; first compound 0.8 µM
  relative viability: 0.904
[2]; first compound 2.53 µM
  relative viability: 1.08
[2]; first compound 8 µM
  relative viability: 0.996
[3]; first compound 0.08 µM
  relative viability: 0.552
[3]; first compound 0.8 µM
  relative viability: 0.35
[3]; first compound 2.53 µM
  relative viability: 0.602
[3]; first compound 8 µM
  relative viability: 0.327
Ruboxistaurin + Olaparib; first compound 0.08 µM
  relative viability: 0.461
Ruboxistaurin + Olaparib; first compound 0.8 µM
  relative viability: 0.398
Ruboxistaurin + Olaparib; first compound 2.53 µM
  relative viability: 0.415
Ruboxistaurin + Olaparib; first compound 8 µM
  relative viability: 0.391
[4]; first compound 0.08 µM
  relative viability: 0.49
[4]; first compound 0.8 µM
  relative viability: 0.448
[4]; first compound 2.53 µM
  relative viability: 0.533
[4]; first compound 8 µM
  relative viability: 0.595

## NCI-H1993
[1]; first compound 0.08 µM
  relative viability: 1.08
[1]; first compound 0.8 µM
  relative viability: 0.919
[1]; first compound 2.53 µM
  relative viability: 0.994
[1]; first compound 8 µM
  relative viability: 0.689
[2]; first compound 0.08 µM
  relative viability: 0.941
[2]; first compound 0.8 µM
  relative viability: 0.623
[2]; first compound 2.53 µM
  relative viability: 0.905
[2]; first compound 8 µM
  relative viability: 0.691
[3]; first compound 0.08 µM
  relative viability: 0.78
[3]; first compound 0.8 µM
  relative viability: 0.422
[3]; first compound 2.53 µM
  relative viability: 0.561
[3]; first compound 8 µM
  relative viability: 0.555
Ruboxistaurin + Olaparib; first compound 0.08 µM
  relative viability: 1.01
Ruboxistaurin + Olaparib; first compound 0.8 µM
  relative viability: 0.959
Ruboxistaurin + Olaparib; first compound 2.53 µM
  relative viability: 1.19
Ruboxistaurin + Olaparib; first compound 8 µM
  relative viability: 0.538
[4]; first compound 0.08 µM
  relative viability: 0.579
[4]; first compound 0.8 µM
  relative viability: 0.559
[4]; first compound 2.53 µM
  relative viability: 0.582
[4]; first compound 8 µM
  relative viability: 0.522

## ChaGo-K-1
[1]; first compound 0.08 µM
  relative viability: 1.38
[1]; first compound 0.8 µM
  relative viability: 1.08
[1]; first compound 2.53 µM
  relative viability: 0.925
[1]; first compound 8 µM
  relative viability: 0.703
[2]; first compound 0.08 µM
  relative viability: 0.916
[2]; first compound 0.8 µM
  relative viability: 0.888
[2]; first compound 2.53 µM
  relative viability: 0.965
[2]; first compound 8 µM
  relative viability: 0.912
[3]; first compound 0.08 µM
  relative viability: 0.564
[3]; first compound 0.8 µM
  relative viability: 0.611
[3]; first compound 2.53 µM
  relative viability: 0.636
[3]; first compound 8 µM
  relative viability: 0.478
Ruboxistaurin + Olaparib; first compound 0.08 µM
  relative viability: 0.431
Ruboxistaurin + Olaparib; first compound 0.8 µM
  relative viability: 0.39
Ruboxistaurin + Olaparib; first compound 2.53 µM
  relative viability: 0.433
Ruboxistaurin + Olaparib; first compound 8 µM
  relative viability: 0.444
[4]; first compound 0.08 µM
  relative viability: 0.592
[4]; first compound 0.8 µM
  relative viability: 0.487
[4]; first compound 2.53 µM
  relative viability: 0.53
[4]; first compound 8 µM
  relative viability: 0.535

## HCC-15
[1]; first compound 0.08 µM
  relative viability: 0.724
[1]; first compound 0.8 µM
  relative viability: 0.64
[1]; first compound 2.53 µM
  relative viability: 0.71
[1]; first compound 8 µM
  relative viability: 0.62
[2]; first compound 0.08 µM
  relative viability: 1.1
[2]; first compound 0.8 µM
  relative viability: 0.927
[2]; first compound 2.53 µM
  relative viability: 1.12
[2]; first compound 8 µM
  relative viability: 1.09
[3]; first compound 0.08 µM
  relative viability: 0.683
[3]; first compound 0.8 µM
  relative viability: 0.593
[3]; first compound 2.53 µM
  relative viability: 0.489
[3]; first compound 8 µM
  relative viability: 0.518
Ruboxistaurin + Olaparib; first compound 0.08 µM
  relative viability: 0.792
Ruboxistaurin + Olaparib; first compound 0.8 µM
  relative viability: 0.651
Ruboxistaurin + Olaparib; first compound 2.53 µM
  relative viability: 0.777
Ruboxistaurin + Olaparib; first compound 8 µM
  relative viability: 0.867
[4]; first compound 0.08 µM
  relative viability: 0.699
[4]; first compound 0.8 µM
  relative viability: 0.576
[4]; first compound 2.53 µM
  relative viability: 0.666
[4]; first compound 8 µM
  relative viability: 0.685

## NCI-H23
[1]; first compound 0.08 µM
  relative viability: 0.897
[1]; first compound 0.8 µM
  relative viability: 0.59
[1]; first compound 2.53 µM
  relative viability: 0.91
[1]; first compound 8 µM
  relative viability: 0.68
[2]; first compound 0.08 µM
  relative viability: 1
[2]; first compound 0.8 µM
  relative viability: 0.897
[2]; first compound 2.53 µM
  relative viability: 1.1
[2]; first compound 8 µM
  relative viability: 0.936
[3]; first compound 0.08 µM
  relative viability: 0.849
[3]; first compound 0.8 µM
  relative viability: 0.732
[3]; first compound 2.53 µM
  relative viability: 0.769
[3]; first compound 8 µM
  relative viability: 0.794
Ruboxistaurin + Olaparib; first compound 0.08 µM
  relative viability: 0.41
Ruboxistaurin + Olaparib; first compound 0.8 µM
  relative viability: 0.251
Ruboxistaurin + Olaparib; first compound 2.53 µM
  relative viability: 0.361
Ruboxistaurin + Olaparib; first compound 8 µM
  relative viability: 0.254
[4]; first compound 0.08 µM
  relative viability: 0.279
[4]; first compound 0.8 µM
  relative viability: 0.259
[4]; first compound 2.53 µM
  relative viability: 0.364
[4]; first compound 8 µM
  relative viability: 0.283

## NCI-H1395
[1]; first compound 0.08 µM
  relative viability: 1.12
[1]; first compound 0.8 µM
  relative viability: 1.03
[1]; first compound 2.53 µM
  relative viability: 1.2
[1]; first compound 8 µM
  relative viability: 1.06
[2]; first compound 0.08 µM
  relative viability: 0.993
[2]; first compound 0.8 µM
  relative viability: 0.904
[2]; first compound 2.53 µM
  relative viability: 1.02
[2]; first compound 8 µM
  relative viability: 0.911
[3]; first compound 0.08 µM
  relative viability: 0.444
[3]; first compound 0.8 µM
  relative viability: 0.427
[3]; first compound 2.53 µM
  relative viability: 0.386
[3]; first compound 8 µM
  relative viability: 0.372
Ruboxistaurin + Olaparib; first compound 0.08 µM
  relative viability: 0.465
Ruboxistaurin + Olaparib; first compound 0.8 µM
  relative viability: 0.397
Ruboxistaurin + Olaparib; first compound 2.53 µM
  relative viability: 0.466
Ruboxistaurin + Olaparib; first compound 8 µM
  relative viability: 0.474
[4]; first compound 0.08 µM
  relative viability: 0.666
[4]; first compound 0.8 µM
  relative viability: 0.667
[4]; first compound 2.53 µM
  relative viability: 0.781
[4]; first compound 8 µM
  relative viability: 0.686

## NCI-H1666
[1]; first compound 0.08 µM
  relative viability: 1.12
[1]; first compound 0.8 µM
  relative viability: 0.679
[1]; first compound 2.53 µM
  relative viability: 1.1
[1]; first compound 8 µM
  relative viability: 0.931
[2]; first compound 0.08 µM
  relative viability: 0.986
[2]; first compound 0.8 µM
  relative viability: 0.919
[2]; first compound 2.53 µM
  relative viability: 0.894
[2]; first compound 8 µM
  relative viability: 0.871
[3]; first compound 0.08 µM
  relative viability: 0.82
[3]; first compound 0.8 µM
  relative viability: 0.844
[3]; first compound 2.53 µM
  relative viability: 0.764
[3]; first compound 8 µM
  relative viability: 0.92
Ruboxistaurin + Olaparib; first compound 0.08 µM
  relative viability: 0.832
Ruboxistaurin + Olaparib; first compound 0.8 µM
  relative viability: 0.751
Ruboxistaurin + Olaparib; first compound 2.53 µM
  relative viability: 0.786
Ruboxistaurin + Olaparib; first compound 8 µM
  relative viability: 0.764
[4]; first compound 0.08 µM
  relative viability: 0.728
[4]; first compound 0.8 µM
  relative viability: 0.693
[4]; first compound 2.53 µM
  relative viability: 0.693
[4]; first compound 8 µM
  relative viability: 0.788
